Like-named read-outs stand apart in the source and are kept apart here.
Tests used:
[1] = tested on: A/H1N1 strain A/New Jersey/8/76; type: in vivo, human
[2] = tested on: Jurkat cells with NFAT-LUC reporter (JNL); test: Activation of CD19 RCAR with extracellular FKBP/FRB switch (half and full switches) by RAD001, NFAT luciferase; type: cell-based; settings: extracellular half switch 1; 5 nM and 50 nM
Experimental: The RCAR constructs were expressed in a Jurkat reporter cell line. Jurkat cells with NFAT-LUC reporter (JNL) were grown to the density of 0.5×10^6/ml in Jurkat cell growth media with puromycin at 0.5 μg/ml. For each transfection 2.5×10^6 cells were spin down at 100 g for 10 minutes. Two μg of DNA per RCAR construct were used per transfection. Amaxa Nucleofector solution V and supplement I was mixed and 100 μl was added into the tube with DNA construct. The mixture was then added to the cells and transferred to the electroporation cuvette. Electroporation was done under setting X-001 using Amaxa Nucleofector II Device. 0.5 ml of growth media was added immediately after electroporation and the mixture were transferred into 2 ml growth media in one well of the 6-well plate.
After one hour, RAD001 compound was applied at various concentrations: 0 nM, 0.01 nM, 0.03 nM, 0.1 nM, 0.3 nM, 1 nM, 5 nM, and 50 nM. Tissue culture plate was coated with 5 μg/ml of anti anti-CD19 antibody or isotype control for 2 hrs, blocked with the blocking buffer (DPBS with 5% serum) for 1 hour. The transfected cells with or without Rad001 were resuspended and added to the target plate with 100 μl per well and incubated for 18 hrs. Luciferase One Glo reagent 100 μl was added per well. The samples were incubated for 5 min at 37° C. and then luminescence was measured using Envision plate reader.

## CO[C@H]1C[C@@H]2CC[C@@H](C)[C@@](O)(O2)C(=O)C(=O)N2CCCC[C@H]2C(=O)O[C@H]([C@H](C)C[C@@H]2CC[C@@H](OCCO)[C@H](OC)C2)CC(=O)[C@H](C)/C=C(\C)[C@@H](O)[C@@H](OC)C(=O)[C@H](C)C[C@H](C)/C=C/C=C/C=C/1C [RAD001, (1R,9S,12S,15R,16E,18R,19R,21R,23S,24E,26E,28E,30S,32S,35R)-1,18-dihydroxy-12-{(1R)-2-[(1S,3R,4R)-4-(2-hydroxyethoxy)-3-methoxycyclohexyl]-1-methylethyl}-19,30-dimethoxy-15,17,21,23,29,35-hexamethyl-11,36-dioxa-4-aza-tricyclo[30.3.1.04,9]hexatriaconta-16,24,26,28-tetraene-2,3,10,14,20-pentaone]
[1]; RAD001 5 mg weekly
  Percentage of subjects who seroconvert to heterologous strain 4 weeks after seasonal influenza vaccination, A/H1N1 strain: A/New Jersey/8/76: 16%
[1]; RAD001 20 mg weekly
  Percentage of subjects who seroconvert to heterologous strain 4 weeks after seasonal influenza vaccination, A/H1N1 strain: A/New Jersey/8/76: 8%
[1]; RAD001 as compared to placebo cohorts
  increase in the HI GMT ratios for the heterologous strain: higher
[2]
  NFAT activity at the higher dosages of RAD001: no inhibition of activity was observed
